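Method: 48-hour compound exposure of cells in 96-well plates, five concentrations, linear interpolation of endpoints. TGI is the concentration that stops growth completely.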
Tests used:
Test in all cases: DTP human tumour cell line panel, 48 h
[1] = tested on: OVCAR-3 ovarian
[2] = tested on: SK-MEL-2 melanoma
[3] = tested on: HCT-116 colon
[4] = tested on: HS 578T breast
[5] = tested on: HT29 colon
[6] = tested on: RPMI-8226 leukemia
[7] = tested on: CAKI-1 renal
[8] = tested on: EKVX NSCLC
[9] = tested on: T-47D breast
[10] = tested on: K-562 leukemia
[11] = tested on: KM12 colon
[12] = tested on: OVCAR-8 ovarian
[13] = tested on: SNB-19 CNS
[14] = tested on: SF-268 CNS
[15] = tested on: MOLT-4 leukemia
[16] = tested on: PC-3 prostate
[17] = tested on: NCI-H522 lung
[18] = tested on: TK-10 renal
[19] = tested on: IGROV1 ovarian
[20] = tested on: HOP-92 NSCLC

| SMILES | TGI [1] | TGI [2] | TGI [3] | TGI [4] | TGI [5] | TGI [6] | TGI [7] | TGI [8] | TGI [9] | TGI [10] | TGI [11] | TGI [12] | TGI [13] | TGI [14] | TGI [15] | TGI [16] | TGI [17] | TGI [18] | TGI [19] | TGI [20] |
| --- | --- | --- | --- | --- | --- | --- | --- | --- | --- | --- | --- | --- | --- | --- | --- | --- | --- | --- | --- | --- |
| COC(=O)c1c2c(cc3c1CC1(C3)Cc3cc4c(c(C(C)=O)c3C1)CCC4)C=CC2 (stereo not given) | > 31.6 µM | > 31.6 µM | > 31.6 µM | > 31.6 µM | > 31.6 µM | > 31.6 µM | > 100 µM | > 31.6 µM | > 31.6 µM | > 31.6 µM | > 31.6 µM | > 31.6 µM | > 31.6 µM | > 31.6 µM | > 31.6 µM | > 31.6 µM | > 31.6 µM | > 31.6 µM | > 31.6 µM | > 31.6 µM |
| CCOC(=O)NC(C(=O)OCC)(N1CCN(c2cc3c(cc2F)c(=O)c(C(=O)O)cn3CC)CC1)C(F)(F)F (stereo not given) | > 100 µM | > 100 µM | > 100 µM | > 100 µM | > 100 µM | > 100 µM | > 100 µM | 56.9 µM | > 100 µM | > 100 µM | > 100 µM | 34 µM | > 100 µM | > 100 µM | > 100 µM | > 100 µM | > 100 µM | > 100 µM | > 100 µM | > 100 µM |

Source: PubChem BioAssay (NCI)
